Measurements reported in BigSolDB 2.1.

CC(=O)c1c(C)cc(C(C)(C)C)cc1C
solubility (mole fraction)
Settings | in acetone | in acetonitrile | in cyclohexane | in ethanol | in ethyl acetate | in isopropanol | in methanol | in n-octanol
273.15 K | 0.308 | 0.188 | 0.279 | 0.0701 | 0.376 | 0.073 | 0.0607 | 0.123
278.15 K | 0.346 | 0.235 | 0.337 | 0.095 | 0.427 | 0.101 | 0.0828 | 0.161
283.15 K | 0.393 | 0.291 | 0.407 | 0.14 | 0.479 | 0.146 | 0.116 | 0.205
288.15 K | 0.445 | 0.355 | 0.48 | 0.196 | 0.539 | 0.206 | 0.16 | 0.27
293.15 K | 0.505 | 0.428 | 0.56 | 0.27 | 0.603 | 0.288 | 0.228 | 0.354
298.15 K | 0.568 | 0.521 | 0.645 | 0.37 | 0.673 | 0.391 | 0.339 | 0.46
303.15 K | 0.64 | 0.623 | 0.735 | 0.52 | 0.741 | 0.542 | 0.478 | 0.6
308.15 K | 0.728 | 0.739 | 0.832 | 0.705 | 0.817 | 0.729 | 0.667 | 0.761
